Source: patent US12156871B2, “Substituted azacycles as muscarinic M1 receptor positive allosteric modulators” (SUVEN LIFE SCIENCES LIMITED, priority 2017, dated 2024)

How the values were obtained:
[1] = Protein binding assay (HT dialysis), rat plasma; format: in vitro ADME; conditions: pH 7.4, Mean ± SEM, n = 3, read-out: Fu Plasma
Method: (§1) Unbound fractions of test compounds in plasma, brain homogenate and liver microsomes were determined using high-throughput dialysis (HT dialysis). Briefly, dialysis membranes were soaked in deionized water for 20 minutes and then in deionized water with 30% ethanol for 15 minutes and finally in phosphate buffer until use. Membranes were rinsed in phosphate buffer before assembling. The membranes were layered between teflon bars of dialysis assembly. Stock solutions of test compound/comparative compound were prepared at 10 mM in DMSO, diluted to 1 mM in acetonitrile and further diluted to 100 μM in mixture of water and acetonitrile (1:1 v/v). Human plasma (pool of 3) was prepared from human blood (3 donors) by centrifuging at 4000 rpm for 10 min at 4° C. Rat and dog blood were obtained on the day of the study and centrifuged to obtain plasma. Rat brains were isolated, cleaned and homogenized with 2 volumes of buffer (3 fold dilution). Liver microsomes were prepared at 0.5 mg/mL in phosphate buffer (100 mM, pH 7.4). The dialysate chambers were loaded with 150 μL of 100 mM phosphate buffer (pH 7.4) in triplicates. The matrix chambers were loaded with 150 μL of the plasma or brain homogenate or microsomal suspension spiked with test compound/comparative compound at a final concentration of 1 μM. 50 μL of the sample was removed from both the chambers at 0 h. The plate was sealed and incubated at 37° C. for 6 h at 100 rpm. After 6 h, 50 μL of the sample was removed from both the chambers. Equal volumes of buffer or human plasma/microsomal suspension were added to the plasma/microsomal and buffer samples respectively to create identical sample matrices for analysis. The samples were precipitated with 150 μL of acetonitrile containing fluoxetine as an internal standard. All the samples were centrifuged at 10000 rpm for 10 minutes at 4° C.

[2] = Protein binding assay (HT dialysis), dog plasma; format: in vitro ADME; conditions: pH 7.4, Mean ± SEM, n = 3, read-out: Fu Plasma (converted)
Method: as §1

[3] = Protein binding assay (HT dialysis), human plasma; format: in vitro ADME; conditions: pH 7.4, Mean ± SEM, n = 3, read-out: Fu Plasma (converted)
Method: as §1

[4] = Protein binding assay (HT dialysis), rat brain homogenate; format: in vitro ADME; conditions: pH 7.4, Mean ± SEM, n = 3, read-out: Fu Brain
Method: as §1

[5] = Protein binding assay (HT dialysis), rat liver microsomes; format: in vitro ADME; conditions: pH 7.4, Rat liver microsomes 0.5 mg/mL, Mean ± SEM, n = 3, read-out: Fu Microsomes
Method: as §1

[6] = Protein binding assay (HT dialysis), dog liver microsomes; format: in vitro ADME; conditions: pH 7.4, Dog liver microsomes 0.5 mg/mL, Mean ± SEM, n = 3, read-out: Fu Microsomes (converted)
Method: as §1

[7] = Protein binding assay (HT dialysis), human liver microsomes; format: in vitro ADME; conditions: pH 7.4, Human liver microsomes 0.5 mg/mL, Mean ± SEM, n = 3, read-out: Fu Microsomes (converted)
Method: as §1

[8] = target: T1, human Muscarinic M1 receptor (Homo sapiens, UniProt P11229); test: Allosteric potency EC50 for muscarinic M1 receptor, CHO pCRE-Luc reporter cell assay; format: cell-based; conditions: in presence of EC20 of acetylcholine; CHO cells, luciferase reporter, 4 h
T1 sequence (P11229 1-460): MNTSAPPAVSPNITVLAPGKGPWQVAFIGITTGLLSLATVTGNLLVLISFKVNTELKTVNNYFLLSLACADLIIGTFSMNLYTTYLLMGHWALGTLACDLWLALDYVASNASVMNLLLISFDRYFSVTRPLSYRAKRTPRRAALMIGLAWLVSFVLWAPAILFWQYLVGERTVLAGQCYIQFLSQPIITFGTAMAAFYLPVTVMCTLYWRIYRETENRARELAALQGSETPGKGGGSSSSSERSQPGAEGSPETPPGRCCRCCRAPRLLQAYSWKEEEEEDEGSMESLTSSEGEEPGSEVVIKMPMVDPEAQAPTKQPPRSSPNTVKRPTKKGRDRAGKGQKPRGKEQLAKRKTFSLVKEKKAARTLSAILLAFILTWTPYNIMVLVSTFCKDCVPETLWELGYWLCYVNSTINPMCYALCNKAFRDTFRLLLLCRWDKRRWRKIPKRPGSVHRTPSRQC
Method: A stable CHO cell line expressing recombinant human Muscarinic M1 receptor and pCRE-Luc reporter system was used for cell-based assay. The assay offers a non-radioactive based approach to determine binding of a compound to GPCRs. In this specific assay, the level of intracellular cyclic AMP which is modulated by activation or inhibition of the receptor is measured. The recombinant cells harbor luciferase reporter gene under the control of cAMP response element.
The above cells were grown in 96 well clear bottom white plates in Hams F12 medium containing 10% fetal bovine serum (FBS). Prior to the addition of compounds or standard agonist, cells were serum starved overnight. Increasing concentrations of test compounds were added along with EC20 of acetylcholine in OptiMEM medium to the cells. The incubation was continued at 37° C. in CO2 incubator for 4 h. Medium was removed and cells were washed with phosphate buffered saline. The cells were lysed and luciferase activity was measured in a Luminometer. Luminescence units were plotted against the compound concentrations using Graphpad software. EC50 values of the compounds were defined as the concentration required in stimulating the luciferase activity by 50% in presence of EC20 of acetylcholine.

[9] = Rodent pharmacokinetic study; format: in vivo, Male Wistar rats; conditions: rat
Method: Male Wistar rats (260±50 grams) were used as experimental animals. Animals were housed individually in polypropylene cage. Two days prior to study, male Wistar rats were anesthetized with isoflurane for surgical placement of jugular vein catheter. Rats were randomly divided for oral (3 mg/kg) and intravenous (i.v) (1 mg/kg) dosing (n=3/group) and fasted overnight before oral dosing (p.o.). However, rats allocated to intravenous (i.v.) dosing food and water was provided ad libitum.
At pre-determined point, blood was collected through jugular vein and replenished with an equivalent volume of normal saline. Collected blood was transferred into a labeled eppendorf tube containing 10 μL of heparin as an anticoagulant. Typically blood samples were collected at following time points: 0.08, 0.25, 0.5, 1, 2, 4, 6, 8, and 24 h post dose. Blood was centrifuged at 4000 rpm for 10 minutes. Plasma was separated and stored frozen at −80° C. until analysis. The concentrations of the test compounds were quantified in plasma by qualified LC-MS/MS method using suitable extraction technique. The test compounds were quantified in the calibration range around 1-1000 ng/mL in plasma. Study samples were analyzed using calibration samples in the batch and quality control samples spread across the batch.
Pharmacokinetic parameters Cmax, AUCt, T1/2, clearance and bioavailability (F) were calculated by non-compartmental model using standard non-compartmental model by using Phoenix WinNonlin 6.0.2 or 6.0.3 version Software package and the results are tabulated below.

[10] = Rodent brain penetration study; format: in vivo, Male Wistar rats; conditions: male, Wistar, brain/plasma, po; rat, 3 mg/kg, p.o. @ 1.0 hr; read-out: Single dose Rat Brain Penetration (Cb/Cp)
Method: Male Wistar rats (260±40 grams) were used as experimental animals. Three animals were housed in each cage. Animals were given water and food ad libitum throughout the experiment and maintained on a 12 h light/dark cycle.
Brain penetration was determined in discrete manner in rats. One day prior to dosing day, male Wistar rats were acclimatized and randomly grouped according to their weight. At each time point (0.5, 1 and 2 h) n=3 animals were used.
The test compounds were suitably preformulated and administered orally at (free base equivalent) 3 mg/kg. Blood samples were removed via cardiac puncture by using isoflurane anesthesia. The animals were sacrificed to collect brain tissue. Plasma was separated and brain samples were homogenized and stored frozen at −20° C. until analysis. The concentrations of the test compounds in plasma and brain were determined using LC-MS/MS method.
The test compounds were quantified in plasma and brain homogenate by qualified LC-MS/MS method using suitable extraction technique. The test compounds were quantified in the calibration range of 1-500 ng/mL in plasma and brain homogenate. Study samples were analyzed using calibration samples in the batch and quality control samples spread across the batch.

[11] = male, Wistar, plasma, iv, i.v. 1 mg/kg
[12] = male, Wistar, plasma, oral 3 mg/kg

COc1ccc(Cc2cc3c(cc2C)CN([C@H]2CCCC[C@@H]2O)C3=O)cc1 [Comparative compound, reference compound]
fraction unbound at 6 h, 1 μM [1]: 0.0141 ± 0.003 | fraction unbound at 6 h, 1 μM [2]: 0.0069 | fraction unbound at 6 h, 1 μM [3]: 0.0063 | fraction unbound at 6 h, 1 μM [4]: 0.0022 ± 0.001 | fraction unbound at 6 h, 1 μM [5]: 0.551 ± 0.013 | fraction unbound at 6 h, 1 μM [6]: 0.709 | fraction unbound at 6 h, 1 μM [7]: 0.48

Cc1nc2c(cc1Cc1ccc(-c3cnn(C)c3)nc1)C(=O)N([C@H]1CCCC[C@@H]1O)C2 [Example 2, 6-(1S,2S-2-Hydroxycyclohexyl)-2-methyl-3-[2-(1-methyl-1H-pyrazol-4-yl)pyridin-5-ylmethyl]-6,7-dihydropyrrolo[3,4-b]pyridin-5-one]
EC50 [8]: 0.288 µM

Cc1nc2c(cc1Cc1ccc(-c3cscn3)cc1)C(=O)N([C@H]1CCCC[C@@H]1O)C2 [Example 4, 6-(1S,2S-2-Hydroxycyclohexyl)-2-methyl-3-(4-thiazol-4-ylbenzyl)-6,7-dihydropyrrolo[3,4-b]pyridin-5-one]
EC50 [8]: 0.107 µM

Cc1nc2c(cc1Cc1ccc(F)cc1)C(=O)N([C@H]1CCCC[C@@H]1O)C2 [Example 9, 6-(1S,2S-2-Hydroxycyclohexyl)-2-methyl-3-(4-fluorobenzyl)-6,7-dihydropyrrolo[3,4-b]pyridin-5-one]
EC50 [8]: 1.5 µM | AUC(0-t) [9, 11]: 1.22 ± 0.025 µg·h/mL | clearance [9, 11]: 0.81 ± 0.018 L/h/kg | half-life [9, 11]: 1.3 ± 0.3 h | AUC(0-t) [9, 12]: 1.29 ± 0.387 µg·h/mL | Cmax [9, 12]: 0.592 ± 0.142 µg/mL | half-life [9, 12]: 1.1 ± 0.4 h | F ([9]; oral 3 mg/kg vs i.v. 1 mg/kg): 35 ± 11% | Kp at 1 h [10]: 0.25 ± 0.04

Cc1nc2c(cc1Cc1cccc(F)c1)C(=O)N([C@H]1CCCC[C@@H]1O)C2 [Example 10, 6-(1S,2S-2-Hydroxycyclohexyl)-2-methyl-3-(3-fluorobenzyl)-6,7-dihydropyrrolo[3,4-b]pyridin-5-one]
EC50 [8]: 2.78 µM

COc1ccc(Cc2cc3c(nc2C)CN(C2COCCC2O)C3=O)cc1 (centres unmarked) [Example 13, 6-(4-Hydroxytetrahydropyran-3-yl)-3-(4-methoxybenzyl)-2-methyl-6,7-dihydropyrrolo[3,4-b]pyridin-5-one]
EC50 [8]: 0.669 µM

COc1ccc(Cc2cc3c(nc2C)CCN([C@H]2CCCC[C@@H]2O)C3=O)cc1 [Example 14, 6-(1S,2S-2-Hydroxycyclohexyl)-2-methyl-3-(4-methoxybenzyl)-7,8-dihydro-6H-[1,6]naphthyridin-5-one]
EC50 [8]: 0.643 µM

Cc1nc(-c2ccc(Cc3cc4c(nc3C)CN(C3CCOCC3)C4=O)cc2)co1 [Example 16, 6-(Tetrahydropyran-4-yl)-2-methyl-3-[4-(2-methyl-oxazol-4-yl)-benzyl]-6,7-dihydropyrrolo[3,4-b]pyridin-5-one]
EC50 [8]: 1.32 µM

Cc1nc2c(cc1Cc1cccc(Cl)c1)C(=O)N([C@H]1CCCC[C@@H]1O)CC2 [Example 18, 6-(1S,2S-2-Hydroxycyclohexyl)-2-methyl-3-(3-chlorobenzyl)-7,8-dihydro-6H-[1,6]naphthyridin-5-one]
EC50 [8]: 0.774 µM

Cc1nc2c(cc1Cc1ccc(F)c(F)c1)C(=O)N([C@H]1CCCC[C@@H]1O)CC2 [Example 19, 6-(1S,2S-2-Hydroxycyclohexyl)-2-methyl-3-(3,4-difluorobenzyl)-7,8-dihydro-6H-[1,6]naphthyridin-5-one]
EC50 [8]: 0.972 µM

COc1cccc(Cc2cc3c(nc2C)CCN([C@H]2CCCC[C@@H]2O)C3=O)c1 [Example 24, 6-(1S,2S-2-Hydroxycyclohexyl)-2-methyl-3-(3-methoxybenzyl)-7,8-dihydro-6H-[1,6]naphthyridin-5-one]
EC50 [8]: 1.21 µM

Cc1nc2c(cc1Cc1ccnc(F)c1)C(=O)N([C@H]1CCCC[C@@H]1O)C2 [Example 28, 6-(1S,2S-2-Hydroxycyclohexyl)-2-methyl-3-(2-fluoropyridin-4-ylmethyl)-6,7-dihydropyrrolo[3,4-b]pyridin-5-one]
EC50 [8]: 0.929 µM
